The results in this text go back to patent publication US6492426B1, “Use of 1-aminoindan derivatives for treatment of mania in bipolar mood disorder” (priority 1999, dated 2002).

“And” between values parts separate entries of the source, which are not always exact repeats. Equal entries are not always repeated.

In the test the test system is amphetamine-induced hyperactivity in rats. Kind of test: amphetamine-induced hyperactivity model of mania in rats (automated activity monitors). The settings on record: for Effect on activity levels of rats (summary): amphetamine-treated rats; for Anti-manic potential from the tested model (conclusion): based on the tested model and doses; for Locomotor activity, 20 min, mean / Vertical activity, 20 min, mean / Locomotor activity, 30 min, mean / Vertical activity, 30 min, mean / Locomotor activity, 10 min, mean / Vertical activity, 10 min, mean / Locomotor activity, 20-10 min, mean / Vertical activity, 20-10 min, mean / Locomotor activity, 30-20 min, mean / Vertical activity, 30-20 min, mean: group mean n=10; for Locomotor activity, 20 min, mean / Vertical activity, 20 min, mean / Locomotor activity, 30 min, mean / Vertical activity, 30 min, mean / Locomotor activity, 10 min, mean / Vertical activity, 10 min, mean / Locomotor activity, 20-10 min, mean / Vertical activity, 20-10 min, mean / Locomotor activity, 30-20 min, mean / Vertical activity, 30-20 min, mean / Locomotor activity, 10 min / Locomotor activity, 20 min / Vertical activity, 20 min / Locomotor activity, 30 min / Vertical activity, 30 min / Vertical activity, 10 min / Locomotor activity, 20-10 min / Vertical activity, 20-10 min / Locomotor activity, 30-20 min / Vertical activity, 30-20 min: 75 mg/kg IP twice, amphetamine 0.5 mg/kg s.c.; for Locomotor activity, 20 min, mean / Vertical activity, 20 min, mean / Locomotor activity, 20 min / Vertical activity, 20 min: cumulative to 20 min; for Locomotor activity, 30 min, mean / Vertical activity, 30 min, mean / Locomotor activity, 30 min / Vertical activity, 30 min: cumulative to 30 min; for Locomotor activity, 10 min, mean / Vertical activity, 10 min, mean / Locomotor activity, 10 min / Vertical activity, 10 min: first 10 min; for Locomotor activity, 20-10 min, mean / Vertical activity, 20-10 min, mean / Locomotor activity, 20-10 min / Vertical activity, 20-10 min: second 10 min interval; for Locomotor activity, 30-20 min, mean / Vertical activity, 30-20 min, mean / Locomotor activity, 30-20 min / Vertical activity, 30-20 min: third 10 min interval; for Locomotor activity, 10 min / Locomotor activity, 20 min / Vertical activity, 20 min / Locomotor activity, 30 min / Vertical activity, 30 min / Vertical activity, 10 min / Locomotor activity, 20-10 min / Vertical activity, 20-10 min / Locomotor activity, 30-20 min / Vertical activity, 30-20 min: individual rat; for Locomotor activity, 20-10 min / Vertical activity, 20-10 min / Locomotor activity, 30-20 min / Vertical activity, 30-20 min: non cumulative. The format is in vivo, Sprague Dawley rats. As to the method: Evaluation of possible anti-bipolar effects of compounds 1 to 4 was effected by an amphetamine-induced hyperactivity model of mania in rats. Each of the compounds was examined in a separate experiment and compared with a control group, treated with the same dose of amphetamine.
Twenty Sprague Dawley rats, weighing 200-250 g served for each of the four (4) experiments. Rats were housed in a colony room with constant temperature (22° C.), 12 h light/dark cycle and free access to food and water. Each experiment consisted of two groups (n=10 per group), one group was treated with the compound (1 to 4) and the other with vehicle solution. In experiments 1-4, the drugs were administered intraperitoneally (IP). All experimental procedures were conducted during the light phase of the light/dark cycle.
Amphetamine (0.5 mg/kg, sub-cutaneous (s.c.), diluted in de-ionized water) was injected into all rats (both groups of each experiment) immediately prior to behavioral testing. In experiments 1 to 4, compounds (R)-N-acetyl aminoindan (1); (S)-N-indanyl glycinamide HCl (2); (rac)-N-(2-aminoacetyl)-1-aminoindan HCl (3); and (S)-N-formyl aminoindan (4) were injected twice intraperitoneally (IP) at a dose of 75 mg/kg, 19 h and 3 h prior to behavioral testing in experiments. All compounds were suspended in a 5% methyl cellulose solution. The vehicle solution was administered to the control animals.
Immediately after amphetamine injection, rats were placed in automated activity monitors and their activity levels were scored every 10 minutes in the 30 minute time span for experiments 1 to 4. Activity scores included separate measurements of horizontal (locomotion) and of vertical (rearing) activity.
Repeated ANOVA measurements were used to examine the effects of compounds 1 to 4 on locomotor and on vertical activity. One factor measured the treatment of the rats using compounds 1 to 4 or the control vehicle; the repeated measure factor was time (three 10 minute intervals). Post hoc LSD (least significant difference) tests were used to determine whether significant differences occurred in different time periods, where relevant.

The mark [1] stands for this setting: 75 mg/kg IP, 19 h and 3 h before testing, result in words.

Consider `Cl.NCC(=O)N[C@H]1CCc2ccccc21` [Compound 2, (S)-N-indanyl glycinamide HCl], for which the “Locomotor activity, 20 min, mean” value came out at 1277.9 counts; the “Vertical activity, 20 min, mean” value is given as 96.3 counts; the “Locomotor activity, 30 min, mean” value is on record as 1740.5 counts; the “Vertical activity, 30 min, mean” value is listed as 125 counts. For the same compound, the “Locomotor activity, 10 min, mean” value amounted to 626 counts; the “Vertical activity, 10 min, mean” value was 49.3 counts; the “Locomotor activity, 20-10 min, mean” value is reported as 651.9 counts; the “Vertical activity, 20-10 min, mean” value was 47 counts. The “Locomotor activity, 30-20 min, mean” value was determined as 462.6 counts and the “Vertical activity, 30-20 min, mean” value is 28.7 counts. Besides, under setting [1], the “Effect on amphetamine-induced locomotor activity versus control (ANOVA)” value was “did not have a significant effect” and the “Effect on amphetamine-induced vertical activity versus control (ANOVA)” value was “significantly increased the level of vertical activity”. Also, the “Effect on activity levels of rats (summary)” value (75 mg/kg IP, result in words) is “surprisingly increased activity”. Besides, the “Anti-manic potential from the tested model (conclusion)” value (result in words) is on record as “does not show anti-manic potential”. The “Locomotor activity, 10 min” value (19 h and 3 h before testing, HCl) is 531 counts and 603 counts and 604 counts and 619 counts and 663 counts (2×) and 616 counts and 670 counts and 643 counts and 648 counts. For the same compound, for the setting “HCl”, the “Locomotor activity, 20 min” value was 1096 counts and 1197 counts and 1334 counts and 1140 counts and 1525 counts and 1508 counts and 1366 counts and 1272 counts and 1325 counts and 1016 counts; the “Vertical activity, 20 min” value was 51 counts and 133 counts and 62 counts and 84 counts and 101 counts and 236 counts and 118 counts and 50 counts and 70 counts and 58 counts; the “Locomotor activity, 30 min” value is 1547 counts and 1606 counts and 1964 counts and 1598 counts and 1908 counts and 2038 counts and 1670 counts and 1608 counts and 2047 counts and 1419 counts; the “Vertical activity, 30 min” value was 75 counts and 168 counts and 98 counts and 96 counts and 104 counts and 321 counts and 126 counts and 58 counts and 116 counts and 88 counts. In addition, for the setting “HCl”, the “Vertical activity, 10 min” value was 32 counts and 82 counts and 31 counts and 38 counts (3×) and 95 counts and 66 counts and 30 counts and 43 counts; the “Locomotor activity, 20-10 min” value is 565 counts and 594 counts and 730 counts and 521 counts and 862 counts and 892 counts and 696 counts and 629 counts and 677 counts and 353 counts; the “Vertical activity, 20-10 min” value was 19 counts and 51 counts and 31 counts and 46 counts and 63 counts and 141 counts and 52 counts and 12 counts and 40 counts and 15 counts; the “Locomotor activity, 30-20 min” value was 451 counts and 409 counts and 630 counts and 458 counts and 383 counts and 530 counts and 304 counts and 336 counts and 722 counts and 403 counts. Also, the “Vertical activity, 30-20 min” value (HCl) was 24 counts and 35 counts and 36 counts and 12 counts and 3 counts and 85 counts and 8 counts (2×) and 46 counts and 30 counts.

For `O=CN[C@H]1CCc2ccccc21` [Compound 4, (S)-N-formyl aminoindan], the “Locomotor activity, 20 min, mean” value was 1035 counts; the “Vertical activity, 20 min, mean” value was 24 counts; the “Locomotor activity, 30 min, mean” value stood at 1523 counts; the “Vertical activity, 30 min, mean” value worked out at 35 counts. For the same compound, the “Locomotor activity, 10 min, mean” value was 553 counts; the “Vertical activity, 10 min, mean” value came to 17 counts; the “Locomotor activity, 20-10 min, mean” value stood at 482 counts; the “Vertical activity, 20-10 min, mean” value was found to be 7 counts. In addition, the “Locomotor activity, 30-20 min, mean” value turned out to be 488 counts; the “Vertical activity, 30-20 min, mean” value came to 11 counts; the “Locomotor activity, 20 min” value was 919 counts and 1099 counts and 896 counts and 840 counts and 1179 counts and 1113 counts and 923 counts and 988 counts and 1306 counts and 1088 counts; the “Vertical activity, 20 min” value is 10 counts and 40 counts and 21 counts and 7 counts and 30 counts and 17 counts and 27 counts and 4 counts and 37 counts and 43 counts. Further, the “Locomotor activity, 30 min” value was 1371 counts and 1632 counts and 1253 counts and 1031 counts and 1789 counts and 1730 counts and 1422 counts (2×) and 2061 counts and 1519 counts; the “Vertical activity, 30 min” value is 15 counts and 55 counts and 26 counts and 7 counts and 30 counts and 31 counts and 38 counts and 14 counts and 83 counts and 46 counts; the “Vertical activity, 10 min” value is 9 counts and 30 counts (2×) and 13 counts and 7 counts and 12 counts (2×) and 21 counts and 3 counts and 34 counts; the “Locomotor activity, 20-10 min” value is 466 counts and 510 counts and 414 counts and 332 counts and 583 counts and 555 counts and 442 counts and 437 counts and 615 counts and 469 counts. In addition, the “Vertical activity, 20-10 min” value was 1 counts (2×) and 10 counts and 8 counts and 0 counts and 18 counts and 5 counts and 6 counts and 3 counts and 13 counts; the “Locomotor activity, 30-20 min” value is 452 counts and 533 counts and 357 counts and 191 counts and 610 counts and 617 counts and 499 counts and 434 counts and 755 counts and 431 counts; the “Vertical activity, 30-20 min” value is 5 counts (2×) and 15 counts and 0 counts (2×) and 14 counts and 11 counts and 10 counts and 46 counts and 3 counts. Moreover, the “Effect on amphetamine-induced locomotor activity versus control (ANOVA)” value under setting [1] is given as “significantly reduced amphetamine-induced locomotor activity”. For the same compound, the “Effect on activity levels of rats (summary)” value (75 mg/kg IP, result in words) is listed as “reduced the activity levels”. Also, for the setting “result in words”, the “Anti-manic potential from the tested model (conclusion)” value is “show anti-manic potential”. Also, under “19 h and 3 h before testing”, the “Locomotor activity, 10 min” value was 453 counts and 589 counts and 482 counts and 508 counts and 596 counts and 558 counts and 481 counts and 551 counts and 691 counts and 619 counts.
